{"source": "patent US9168259B2", "about": "(GRÜNENTHAL GMBH, priority 2010, dated 2015)", "target": "T1, KCNQ2/3 channels (Homo sapiens, UniProt O43525+O43526)", "T1 construct": "expressed in transfected cells", "T1 sequence (O43526 whole entry)": "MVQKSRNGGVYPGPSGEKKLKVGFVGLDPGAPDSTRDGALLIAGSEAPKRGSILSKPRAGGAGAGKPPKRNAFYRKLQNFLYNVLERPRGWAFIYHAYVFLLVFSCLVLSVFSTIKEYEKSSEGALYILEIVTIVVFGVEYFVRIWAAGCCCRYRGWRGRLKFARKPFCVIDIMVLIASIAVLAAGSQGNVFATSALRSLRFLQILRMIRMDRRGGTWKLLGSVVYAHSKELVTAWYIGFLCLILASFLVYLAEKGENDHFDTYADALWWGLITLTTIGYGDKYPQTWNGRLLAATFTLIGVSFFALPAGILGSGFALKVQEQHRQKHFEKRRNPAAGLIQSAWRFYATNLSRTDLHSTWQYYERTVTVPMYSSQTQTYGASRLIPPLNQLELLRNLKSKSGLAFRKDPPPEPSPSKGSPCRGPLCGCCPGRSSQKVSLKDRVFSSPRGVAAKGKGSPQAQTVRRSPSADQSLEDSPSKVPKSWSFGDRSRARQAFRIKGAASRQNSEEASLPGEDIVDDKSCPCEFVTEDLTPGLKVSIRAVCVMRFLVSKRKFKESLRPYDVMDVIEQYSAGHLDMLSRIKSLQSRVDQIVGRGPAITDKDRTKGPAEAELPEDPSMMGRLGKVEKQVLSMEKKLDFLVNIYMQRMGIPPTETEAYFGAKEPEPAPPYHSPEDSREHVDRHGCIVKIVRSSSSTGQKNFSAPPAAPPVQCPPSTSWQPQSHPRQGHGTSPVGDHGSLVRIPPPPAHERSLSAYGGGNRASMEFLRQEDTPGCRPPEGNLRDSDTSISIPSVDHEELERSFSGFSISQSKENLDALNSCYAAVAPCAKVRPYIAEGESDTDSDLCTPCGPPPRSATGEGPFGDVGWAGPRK", "T1 sequence (O43525 whole entry)": "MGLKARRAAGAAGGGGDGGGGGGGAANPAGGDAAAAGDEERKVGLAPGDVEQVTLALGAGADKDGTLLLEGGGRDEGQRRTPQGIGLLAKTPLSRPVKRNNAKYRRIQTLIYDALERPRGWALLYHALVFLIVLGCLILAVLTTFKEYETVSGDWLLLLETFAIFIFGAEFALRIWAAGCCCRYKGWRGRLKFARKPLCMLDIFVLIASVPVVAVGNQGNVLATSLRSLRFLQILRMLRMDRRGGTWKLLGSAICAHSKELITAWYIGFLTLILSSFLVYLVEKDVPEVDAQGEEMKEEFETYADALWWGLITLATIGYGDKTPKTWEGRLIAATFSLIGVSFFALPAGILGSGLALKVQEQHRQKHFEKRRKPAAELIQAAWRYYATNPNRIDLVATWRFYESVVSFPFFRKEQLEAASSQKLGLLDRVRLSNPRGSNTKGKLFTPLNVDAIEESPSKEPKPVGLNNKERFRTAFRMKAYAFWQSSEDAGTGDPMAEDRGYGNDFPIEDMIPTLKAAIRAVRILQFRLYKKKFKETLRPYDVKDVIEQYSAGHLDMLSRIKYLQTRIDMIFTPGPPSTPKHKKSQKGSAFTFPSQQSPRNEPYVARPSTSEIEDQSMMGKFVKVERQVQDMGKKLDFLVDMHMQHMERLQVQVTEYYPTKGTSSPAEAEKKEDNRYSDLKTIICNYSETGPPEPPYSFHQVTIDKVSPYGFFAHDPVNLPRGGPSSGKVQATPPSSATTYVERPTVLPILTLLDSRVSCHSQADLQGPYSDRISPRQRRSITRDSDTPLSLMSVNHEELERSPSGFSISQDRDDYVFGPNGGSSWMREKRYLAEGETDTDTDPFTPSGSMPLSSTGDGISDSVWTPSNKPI", "assay": "Fluorescence assay using a voltage sensitive dye (fluorimetry)", "assay_type": "cell-based", "conditions": "CHO-K1 cells expressing KCNQ2/3; for Emax: CHO-K1, plateau effect relative to saturated retigabine (50 μM) = 100%, negative values = antagonistic, read-out: Fluorimetry % efficacy (retigabine = 100%); for EC50: IC50 where % efficacy is negative, read-out: Fluorimetry EC50/IC50"}
{"smiles": "CCN(C)c1nc(N2CCOCC2)cc(C)c1C(=O)NCc1ccc(F)c(F)c1", "note": "[Example 203, N-[(3,4-Difluoro-phenyl)-methyl]-2-(ethyl-methyl-amino)-4-methyl-6-morpholin-4-yl-pyridine-3-carboxylic acid amide]", "values": [{"measurement": "Emax", "result": 220, "unit": "%"}, {"measurement": "EC50", "result": 219, "unit": "nM"}]}
{"smiles": "CCSc1nc(N2CCOCC2)cc(C)c1C(=O)NCc1ccc(SC(F)(F)F)cc1", "note": "[Example 75, 2-Ethylsulfanyl-4-methyl-6-morpholin-4-yl-N-[[4-(trifluoromethylsulfanyl)-phenyl]-methyl]-pyridine-3-carboxylic acid amide]", "values": [{"measurement": "Emax", "result": 135, "unit": "%"}, {"measurement": "EC50", "result": 61, "unit": "nM"}]}
{"smiles": "COCCSc1nc(N2CCOCC2)cc(C)c1C(=O)NCc1cccc(F)c1", "note": "[Example 63, N-[(3-Fluorophenyl)-methyl]-2-(2-methoxy-ethylsulfanyl)-4-methyl-6-morpholin-4-yl-pyridine-3-carboxylic acid amide]", "values": [{"measurement": "Emax", "result": 157, "unit": "%"}, {"measurement": "EC50", "result": 585, "unit": "nM"}]}
{"smiles": "CCSc1nc(N2CCOCC2)cc(C)c1C(=O)NCC1CCCCC1", "note": "[Example 76, N-(Cyclohexyl-methyl)-2-ethylsulfanyl-4-methyl-6-morpholin-4-yl-pyridine-3-carboxylic acid amide]", "values": [{"measurement": "Emax", "result": 179, "unit": "%"}, {"measurement": "EC50", "result": 91, "unit": "nM"}]}
{"smiles": "CCSc1nc(N2CCCOCC2)cc(C)c1C(=O)NCc1cccc(F)c1", "note": "[Example 96, 2-Ethylsulfanyl-N-[(3-fluorophenyl)-methyl]-4-methyl-6-([1,4]oxazepan-4-yl)-pyridine-3-carboxylic acid amide]", "values": [{"measurement": "Emax", "result": 173, "unit": "%"}, {"measurement": "EC50", "result": 1100, "unit": "nM"}]}
{"smiles": "CCC(C)c1nc(N2CCOC[C@H]2C)cc(C)c1C(=O)NCc1ccc(F)cc1", "note": "(stereo partly drawn) [Example 194, N-[(4-Fluorophenyl)-methyl]-4-methyl-6-[(3R)-3-methyl-morpholin-4-yl]-2-(1-methyl-propyl)-pyridine-3-carboxylic acid amide]", "values": [{"measurement": "Emax", "result": 189, "unit": "%"}, {"measurement": "EC50", "result": 31, "unit": "nM"}]}
{"smiles": "Cc1cc(N2CCOC[C@H]2C)nc(N(C)C)c1C(=O)NCCCC(C)(C)C", "note": "[Example 183, 2-Dimethylamino-N-(4,4-dimethyl-pentyl)-4-methyl-6-[(3R)-3-methyl-morpholin-4-yl]-pyridine-3-carboxylic acid amide]", "values": [{"measurement": "Emax", "result": 221, "unit": "%"}, {"measurement": "EC50", "result": 168, "unit": "nM"}]}
{"smiles": "CCSc1nc(N2CCOCC2)cc(C)c1C(=O)NCc1cc(C)cc(C)c1", "note": "[Example 208, N-[(3,5-Dimethyl-phenyl)-methyl]-2-ethylsulfanyl-4-methyl-6-morpholin-4-yl-pyridine-3-carboxylic acid amide]", "values": [{"measurement": "Emax", "result": 61, "unit": "%"}, {"measurement": "EC50", "result": 281, "unit": "nM"}]}
{"smiles": "Cc1cc(N2CCOCC2)nc(C2CC2)c1C(=O)NCCC(O)C(C)(C)C", "note": "(racemic) [Example X1, 2-Cyclopropyl-N-(3-hydroxy-4,4-dimethyl-pentyl)-4-methyl-6-morpholin-4-yl-pyridine-3-carboxylic acid amide]", "values": [{"measurement": "EC50", "result": 529, "unit": "nM"}]}
{"smiles": "CSc1nc(N2CCOCC2)cc(C)c1C(=O)NCc1ccc(Cl)cc1", "note": "[Example 168, N-[(4-Chlorophenyl)-methyl]-4-methyl-2-methylsulfanyl-6-morpholin-4-yl-pyridine-3-carboxylic acid amide]", "values": [{"measurement": "Emax", "result": 149, "unit": "%"}, {"measurement": "EC50", "result": 132, "unit": "nM"}]}
{"smiles": "CCSc1nc(N2CCO[C@H](CO)C2)cc(C)c1C(=O)NCc1cccc(F)c1", "note": "[Example 291, 2-Ethylsulfanyl-N-[(3-fluorophenyl)-methyl]-6-[(2S)-2-(hydroxymethyl)-morpholin-4-yl]-4-methyl-pyridine-3-carboxylic acid amide]", "values": [{"measurement": "Emax", "result": 53, "unit": "%"}, {"measurement": "EC50", "result": 7950, "unit": "nM"}]}
{"smiles": "CCSc1nc(N2CCOCC2)cc(C)c1C(=O)NCCCC(C)(C)CO", "note": "[Example 230, 2-Ethylsulfanyl-N-(5-hydroxy-4,4-dimethyl-pentyl)-4-methyl-6-morpholin-4-yl-pyridine-3-carboxylic acid amide]", "values": [{"measurement": "Emax", "result": 131, "unit": "%"}, {"measurement": "EC50", "result": 12900, "unit": "nM"}]}
{"smiles": "COc1nc(N2CCOC[C@H]2C)cc(C)c1C(=O)NCCCC(F)(F)F", "note": "[Example 236, 2-Methoxy-4-methyl-6-[(3R)-3-methyl-morpholin-4-yl]-N-(4,4,4-trifluoro-butyl)-pyridine-3-carboxylic acid amide]", "values": [{"measurement": "Emax", "result": 227, "unit": "%"}, {"measurement": "EC50", "result": 469, "unit": "nM"}]}
{"smiles": "Cc1cc(N2CCOCC2)nc(N(C)C)c1C(=O)NCCCC(F)(F)F", "note": "[Example 246, 2-Dimethylamino-4-methyl-6-morpholin-4-yl-N-(4,4,4-trifluoro-butyl)-pyridine-3-carboxylic acid amide]", "values": [{"measurement": "Emax", "result": 173, "unit": "%"}, {"measurement": "EC50", "result": 4100, "unit": "nM"}]}
{"smiles": "CCSc1nc(N2CCC(OC)C2)cc(C)c1C(=O)NCc1cccc(F)c1", "note": "(stereo not shown) [Example 30, 2-Ethylsulfanyl-N-[(3-fluorophenyl)-methyl]-6-(3-methoxy-pyrrolidin-1-yl)-4-methyl-pyridine-3-carboxylic acid amide]", "values": [{"measurement": "Emax", "result": 144, "unit": "%"}, {"measurement": "EC50", "result": 1320, "unit": "nM"}]}
{"smiles": "CCSc1nc(N2CCC(=O)CC2)cc(C)c1C(=O)NCc1cccc(F)c1", "note": "[Example 16, 2-Ethylsulfanyl-N-[(3-fluorophenyl)-methyl]-4-methyl-6-(4-oxo-piperidin-1-yl)-pyridine-3-carboxylic acid amide]", "values": [{"measurement": "Emax", "result": 149, "unit": "%"}, {"measurement": "EC50", "result": 2520, "unit": "nM"}]}
{"smiles": "CCSc1nc(N2CCC(OC)CC2)cc(C)c1C(=O)NCc1cccc(F)c1", "note": "[Example 49, 2-Ethylsulfanyl-N-[(3-fluorophenyl)-methyl]-6-(4-methoxy-piperidin-1-yl)-4-methyl-pyridine-3-carboxylic acid amide]", "values": [{"measurement": "Emax", "result": 143, "unit": "%"}, {"measurement": "EC50", "result": 1460, "unit": "nM"}]}
{"smiles": "Cc1cc(N2CCOCC2)nc(OCCF)c1C(=O)NCc1ccc(Cl)cc1", "note": "[Example 269, N-[(4-Chlorophenyl)-methyl]-2-(2-fluoro-ethoxy)-4-methyl-6-morpholin-4-yl-pyridine-3-carboxylic acid amide]", "values": [{"measurement": "Emax", "result": 119, "unit": "%"}, {"measurement": "EC50", "result": 147, "unit": "nM"}]}
{"smiles": "CCSc1nc(N(C)C2CCC(OC)CC2)cc(C)c1C(=O)NCc1cccc(F)c1", "note": "(stereo not shown) [Example 259, 2-Ethylsulfanyl-N-[(3-fluorophenyl)-methyl]-6-[(4-methoxy-cyclohexyl)-methyl-amino]-4-methyl-pyridine-3-carboxylic acid amide]", "values": [{"measurement": "Emax", "result": 133, "unit": "%"}, {"measurement": "EC50", "result": 298, "unit": "nM"}]}
{"smiles": "CCSc1nc(N2CCOCC2)cc(C)c1C(=O)NCC#CC(C)(C)C", "note": "[Example 344, N-(4,4-Dimethyl-pent-2-ynyl)-2-ethylsulfanyl-4-methyl-6-morpholin-4-yl-pyridine-3-carboxylic acid amide]", "values": [{"measurement": "Emax", "result": 253, "unit": "%"}, {"measurement": "EC50", "result": 41, "unit": "nM"}]}
{"smiles": "CCSc1nc(N2CCOCC2)cc(C)c1C(=O)NCCC1CCCC1", "note": "[Example 44, N-(2-Cyclopentyl-ethyl)-2-ethylsulfanyl-4-methyl-6-morpholin-4-yl-pyridine-3-carboxylic acid amide]", "values": [{"measurement": "Emax", "result": 116, "unit": "%"}, {"measurement": "EC50", "result": 87, "unit": "nM"}]}
{"smiles": "CCSc1nc(N(C)C2CCOC2)cc(C)c1C(=O)NCCCC(C)(C)C", "note": "(stereo not shown) [Example 218, N-(4,4-Dimethyl-pentyl)-2-ethylsulfanyl-4-methyl-6-(methyl-tetrahydro-furan-3-yl-amino)-pyridine-3-carboxylic acid amide]", "values": [{"measurement": "Emax", "result": 194, "unit": "%"}, {"measurement": "EC50", "result": 272, "unit": "nM"}]}
{"smiles": "Cc1cc(N2CCOC[C@H]2C)nc(C2CC2)c1C(=O)NCCCC(C)(C)C", "note": "[Example 198, 2-Cyclopropyl-N-(4,4-dimethyl-pentyl)-4-methyl-6-[(3R)-3-methyl-morpholin-4-yl]-pyridine-3-carboxylic acid amide]", "values": [{"measurement": "Emax", "result": 246, "unit": "%"}, {"measurement": "EC50", "result": 19, "unit": "nM"}]}
{"smiles": "Cc1cc(N2CCOCC2)nc(OCC2CC2)c1C(=O)NCc1ccc(F)cc1", "note": "[Example 276, 2-(Cyclopropyl-methoxy)-N-[(4-fluorophenyl)-methyl]-4-methyl-6-morpholin-4-yl-pyridine-3-carboxylic acid amide]", "values": [{"measurement": "Emax", "result": 102, "unit": "%"}, {"measurement": "EC50", "result": 143, "unit": "nM"}]}
{"smiles": "Cc1cc(N2CCOCC2)nc(C(C)C)c1C(=O)NCCC(O)C(C)(C)C", "note": "(racemic) [Example X5, N-(3-Hydroxy-4,4-dimethyl-pentyl)-2-isopropyl-4-methyl-6-morpholin-4-yl-pyridine-3-carboxylic acid amide]", "values": [{"measurement": "EC50", "result": 156, "unit": "nM"}]}
{"smiles": "CSc1nc(N2CCOCC2)cc(C)c1C(=O)NCCCC(C)(C)C", "note": "[Example 152, N-(4,4-Dimethyl-pentyl)-4-methyl-2-methylsulfanyl-6-morpholin-4-yl-pyridine-3-carboxylic acid amide]", "values": [{"measurement": "Emax", "result": 249, "unit": "%"}, {"measurement": "EC50", "result": 63, "unit": "nM"}]}
{"smiles": "CCSc1nc(N2CCN3C(=O)CCC3C2)cc(C)c1C(=O)NCc1cccc(F)c1", "note": "(stereo not shown) [Example 158, 2-Ethylsulfanyl-N-[(3-fluorophenyl)-methyl]-4-methyl-6-(6-oxo-2,3,4,7,8,8a-hexahydro-1H-pyrrolo[1,2-a]pyrazin-2-yl)-pyridine-3-carboxylic acid amide]", "values": [{"measurement": "Emax", "result": 60, "unit": "%"}]}
{"smiles": "CCSc1nc(N2CCOC[C@H]2C)cc(C)c1C(=O)NCc1cc(F)cc(F)c1", "note": "[Example 233, N-[(3,5-Difluoro-phenyl)-methyl]-2-ethylsulfanyl-4-methyl-6-[(3R)-3-methyl-morpholin-4-yl]-pyridine-3-carboxylic acid amide]", "values": [{"measurement": "Emax", "result": 196, "unit": "%"}, {"measurement": "EC50", "result": 70, "unit": "nM"}]}
{"smiles": "CCSc1nc(N2CCOCC2)cc(C)c1C(=O)NCC(O)Cc1ccccc1", "note": "(stereo not shown) [Example 202, 2-Ethylsulfanyl-N-(2-hydroxy-3-phenyl-propyl)-4-methyl-6-morpholin-4-yl-pyridine-3-carboxylic acid amide]", "values": [{"measurement": "Emax", "result": 129, "unit": "%"}, {"measurement": "EC50", "result": 5990, "unit": "nM"}]}
{"smiles": "CCNc1nc(N2CCOCC2)cc(C)c1C(=O)NCc1cccc(F)c1", "note": "[Example 20, 2-Ethylamino-N-[(3-fluorophenyl)-methyl]-4-methyl-6-morpholin-4-yl-pyridine-3-carboxylic acid amide]", "values": [{"measurement": "Emax", "result": 140, "unit": "%"}, {"measurement": "EC50", "result": 782, "unit": "nM"}]}
{"smiles": "Cc1cc(N2CCOCC2)nc(N2CCOCC2)c1C(=O)NCc1cccc(F)c1", "note": "[Example 12, N-[(3-Fluorophenyl)-methyl]-4-methyl-2,6-dimorpholin-4-yl-pyridine-3-carboxylic acid amide]", "values": [{"measurement": "Emax", "result": 210, "unit": "%"}, {"measurement": "EC50", "result": 2010, "unit": "nM"}]}
{"smiles": "Cc1cc(N2CCOC[C@H]2C)nc(C2CC2)c1C(=O)NCc1ccc(Cl)cc1", "note": "[Example 282, N-[(4-Chlorophenyl)-methyl]-2-cyclopropyl-4-methyl-6-[(3R)-3-methyl-morpholin-4-yl]-pyridine-3-carboxylic acid amide]", "values": [{"measurement": "Emax", "result": 182, "unit": "%"}, {"measurement": "EC50", "result": 40, "unit": "nM"}]}
